Measured values: US20250332392A1, “APPARATUSES AND METHODS FOR TREATMENT OF FEMALE URINARY INCONTINENCE” (THE BOARD OF REGENTS OF THE UNIVERSITY OF TEXAS SYSTEM, priority 2022, published 2025)

Columns and labels:
[1] = tested on: urinary incontinence (UI) episodes; experiment: clinical trial of oral sildenafil in women: UI episodes and side effects; assay type: in vivo
Source text: In view of this, the inventors determined to develop a way to administer sildenafil directly to the muscles and structures of the pelvic floor using an intravaginal apparatus. Disclosed in the discussion that follows are example embodiments of intravaginal apparatuses that can be used for treating urinary incontinence.

[2] = clinical trial pharmacokinetics: plasma and cervicovaginal (CVF) secretion drug concentrations after oral sildenafil; assay type: in vivo; conditions: women, oral 20 mg 3 times a day for a month
Procedure: A series of pharmacokinetic and safety studies were conducted in both women and sheep.

## CCCc1nn(C)c2c(=O)[nH]c(-c3cc(S(=O)(=O)N4CCN(C)CC4)ccc3OCC)nc12 [sildenafil]
[1]; women taking oral sildenafil
  side effects: flushing, visual changes, and gastrointestinal changes
[1]; women taking oral sildenafil (20 mg 3 times a day for a month)
  number of UI episodes per day: decrease
[2]
  dependence of CVF secretion drug concentrations on plasma drug concentrations: not dependent on the plasma drug concentrations
[2]; later timepoints after the last oral dose
  CVF secretion drug concentrations compared with plasma drug concentrations: higher than the plasma drug concentrations
